Measured values: PMC10788856, “Mimicking Nonribosomal Peptides from the Marine Actinomycete Streptomyces sp. H-KF8 Leads to Antimicrobial Peptides” (ACS Infectious Diseases, 2023)
Numbered stars: 1 amine (or outer) side, 2 acyl side, 3 side chain; on linkers, the order of the positions; unused ones are H or OH. Bridge positions count the residues as written; N and C are the ends. Square brackets hold non-standard residues; d marks the D form. Peptide text beside a SMILES is read from it. Tyr(3-NO2) = N[C@@H](Cc1ccc(O)c([N+](=O)[O-])c1)C(=O)O; Glutaryl = O=C(CCCC(=O)[*:2])[*:1]; Orn = NCCC[C@H](N)C(=O)O

Legend:
S. aureus = experiment: microbe, parasite or virus in culture; assay type: cell-based; settings: 16 h
[1] = system: human embryonic kidney (HEK) cells; assay type: cell-based
Description: (§1) To confirm the peptide selectivity toward bacteria cells, cytotoxicity assays of synthesized peptides L2, L3, L3-K, and C3 against human embryonic kidney (HEK) and hepatoblastoma (HepG2) were performed (Figure 4). The cell viability was assessed using resazurin 24 h post peptide exposure. The line at 70% cell viability marks out the threshold for cytotoxic potential compared to the negative control.
(§2) Figure 4 Cell viability assessment using the resazurin assay 24 h post peptide exposure: (a) HepG2 and (b) HEK cells were treated with various concentrations of the peptides C3, L3, L3-K, and L2. Triton-X was used as a positive control. Cells cultured in pure cell media were used as negative controls and were considered to have 100% cell viability. The line represents the threshold for cytotoxicity level of 70% of cell viability compared to the negative control. Data are presented as the mean ± SD of three biological replicates of the HepG2 cells and the mean ± SD of two biological replicates of the HEK cells.
(§3) Cytotoxicity against human embryonic kidney (HEK) and hepatoblastoma (HepG2) cell lines was assessed. Cells were grown to an initial seeding density of 10 000 cells per well. Metabolic activity was determined in a resazurin-based assay. HEK and HepG2 cells were exposed to four different concentrations of the peptides for 24 h. Treatment with Triton X-100 at 1% v/v was used as a positive control. Following this exposure period, the cells were treated with resazurin at a final concentration of 0.015 mg/mL for 3 h. The metabolic activity was then determined in an resazurin-based assay. The fluorescence intensities were quantified in a Hidex Sense microplate reader using an excitation wavelength of 544 nm and an emission wavelength of 590 nm.

[2] = system: hepatoblastoma (HepG2) cells; assay type: cell-based, human
Description: as §1, §2, §3

E. coli CCUG31246 [3] = assay type: cell-based; settings: E. coli CCUG31246; 1:10 BHI; 5 × 10^5 CFU/mL; 37 °C, 16 h, steady agitation; used as 1× MIC
E. coli CCUG31246 [4] = experiment: Propidium iodide staining (pore formation); assay type: cell-based
Description: Due to the overall similarity of the peptides’ cytological profiles to that of polymyxin B, we further tested their ability to form pores in the cell membrane. To this end, we used the fluorescence probe propidium iodide, which cannot cross intact membranes but can enter cells through pores of sufficient size.[39]
Pore formation was investigated with the fluorescence dye propidium iodide as described previously[56] with minor modifications. E. coli CCUG31246 was grown to an OD600 of 0.3 and subsequently treated with different peptides for 10 and 60 min. Samples were stained with 1 μg/mL propidium iodide for 15 min (added 5 min before adding antibiotics for the 10 min time point and after 45 min of antibiotic treatment for the 60 min time point), spotted on 1.2% agarose films, and sealed with a gene frame. Microscopy was performed as described above. The fluorescence intensity of the different samples was analyzed with MicrobeJ. For detection of bacterial cells from phase contrast images, parameters were set to an area of 1.5-max, length of 1-max, width 0.5–2.5, curvature 0–1.5, and an angularity of 0–0.5. Fluorescence intensity parameters were set to an area of 1.5-max, length of 1-max, and width 0.5–2.5. All other parameters remained at default settings.

C. albicans = experiment: microbe, parasite or virus in culture; assay type: cell-based; settings: 16 h
[5] = system: Escherichia coli (CCUG 31246); experiment: Minimum microbicidal concentration (MMC99) assay; assay type: cell-based, E. coli; settings: BHI diluted 1/100
Description: The microbicidal activity of the synthetic peptides was assessed against S. aureus (ATCC 12600; American Type Culture Collection, Manassas, VA, USA), Escherichia coli (CCUG 31246; Culture Collection, University of Gothenburg, Sweden), and Candida albicans (ATCC 64549/CCUG31028) using an MMC assay, as described previously by […] et al. (specific details in Supporting Information, pages 10, 11).[28] The assay was performed in BHI diluted 1/100 (BHI100). […] page 11: Table S5. Energy and structural ensembles of synthesized peptides. […] Energy -3887.06 -3620.88 -4968.42 -2163.76 -2646.75 Van der Waals solv. Energy 117.32 91.57 183.20 -88.88 -139.89 Mean RMSD* (Å), mean±SD […] Heavy atoms 1.87 ± 0.33 1.77 ± 0.50 0.98 ± 0.34 0.63 ±0.22 2.88 ±0.62 MMC99 activity including salt stability measurements Antimicrobial activity of L2 and L3 in the presence of NaCl. 1Table S6. Peptide MMC99 (μg/ml) sin NaCl S. aureus E.coli C. albicans (mM) 2[…] 0 50 25 25 85 - - - - - - >200 >200 >200 150 - - - - - - >200 >200 >200 3L 0 12.5 12.5 25 12,5 6.3 6.3 12.5 6.3 12.5 […] 150 >400 >400 (-)2 >400 >400 >400 >200 >200 >200 […] or 150 mM NaCl. L2 and L3 were serially diluted in twofold steps with a starting dilution of 200 μg/ml […] All sample dilutions were run in duplicates (L2) or triplicates (L3). 2 The growth of S. aureus at 24 h in BHI 100 with 85 or 150 mM NaCl was reduced. Minimum microbicidal concentration (MMC), killing 99% of the inoculum. All microorganisms were cultured in brain-heart infusion broth (BHI) overnight on a shaker at 37°C. The cultures were thereafter transferred to fresh BHI broth in volumes constituting 10% of total, and incubated for an additional 2 h to reach exponential growth phase. The bacterial cultures were washed once in BHI diluted 1/100 (BHI100), followed by resuspension in BHI100. The cell suspensions were diluted to a density of […] (bacteria) or 2x10^7 CFU/ml (yeast), as estimated by optical density measurement at 590 nm. […] Serum stability Figure S 133. […] A) peptide L2 B) peptide L3. C) peptide L3-K. D) peptide C3.

CC(C)[C@H]1NC(=O)[C@H](CCCN)NC(=O)[C@H]([C@@H](C)O)NC(=O)[C@H](CCCN)NC(=O)[C@H](Cc2c[nH]c3ccccc23)NC(=O)[C@@H](C)NC(=O)[C@@H](C(C)C)NC(=O)[C@@H](C)NC(=O)[C@H](Cc2c[nH]c3ccccc23)NC(=O)CCCC(=O)NCCCC[C@@H](C(N)=O)NC(=O)[C@H](Cc2ccc(O)c([N+](=O)[O-])c2)NC1=O [C3] (W[dA][dV][dA]W[Orn]T[Orn][dV][Tyr(3-NO2)]K-NH2; linker N-11 via Glutaryl)
S. aureus MIC (S. aureus): >512 µg/mL | cytotoxicity, cell viability HEK [1]: at the highest tested concentration seems to have cytotoxic properties | cytotoxicity, cell viability HepG2 [2]: at the highest tested concentration seems to have cytotoxic properties | MIC obtained for mechanistic experiments (E. coli CCUG31246 [3]): 512 µg/mL | cells remaining unstained by propidium iodide after 60 min (E. coli CCUG31246 [4]; 1× MIC (64 μg/mL L3, 128 μg/mL L3-K, 512 μg/mL C3), 60 min, 1 μg/mL propidium iodide): 64% | propidium iodide uptake (E. coli CCUG31246 [4]; 1× MIC of peptide, polymyxin B 10 μg/mL, 10 and 60 min): only a small subpopulation of cells | C. albicans MIC (C. albicans): >512 µg/mL | active concentrations against E. coli (MMC99, text) [5]: ≥ 100 µg/mL | E. coli MMC99 2 h ([5]; 37 °C, 2 h, median, n = 3): >100 µg/mL | E. coli MMC99 6 h ([5]; 37 °C, 6 h, median, n = 3): >100 µg/mL | E. coli MMC99 24 h ([5]; 37 °C, 24 h, median, n = 3): 100 µg/mL
